Data on three compounds can be found in patent US6013623A, “Use of heme-peptides to prevent or retard disease associated with oxidative stress” (The Trustees of Columbia University in the City of New York, priority 1997, dated 2000).

Data set [1] concerns lens epithelial cell culture. As to conditions: range required for effective activity; cited from earlier work.
Data set [2] can be described thus: Degradation of H2O2 by microperoxidase (ferroammonium sulfate/thiocyanate H2O2 assay). The data set is classed as biochemical. The method, then:
(FIG. 1A) Effect of cofactors on μPx-11 degradation of H2 O2. 300 μM hydrogen peroxide (H2 O2) was incubated with μPx-11 in 50 mM phosphate buffer, pH 7.0 at 25° C. in 1 ml. At indicated times, 50 μl aliquots were removed for H2 O2 assay as described in the Materials and Methods section. 50 mM phosphate buffer, pH 7.0 buffer+500 μM NADPH, buffer+1 mM ascorbate (Asc), buffer+3 μM (μPx-11), prior solution+500 μM NADPH, as the previous solution but with 1 mM Asc rather than NADPH. 20 μM μPx-11 in 50 mM phosphate buffer pH 7.0. The results represent the average±S.D. of 3 experiments in most cases.
(FIG. 1B) Stability of μPx-11 as measured by ability to degrade H2 O2. 300 μM H2 O2 in 2 ml of 50 mM phosphate buffer, pH. […] The levels of certain components (H2 O2, NADPH or Asc) were brought back to estimated starting concentrations based on prior experiments and the H2 O2 decay again measured. […]
(FIG. 1C) Concentration dependence of μPx-11 in the presence of Asc. […] The data is expressed as nmoles H2 O2 degraded per ml per minute per nmole μPx-11 in 1 ml. The initial H2 O2 degradation rate measured in the first minute is given. […]
H2 O2 was assayed by the method of Hildebrandt et al. (1978), as modified by Spector et al. (1993a) and is based on the oxidation of ferroammonium sulfate in the presence of potassium thiocyanate. […] Hydroxyl radical was determined as previously described (Spector et al., 1993a). […]

No end group written: not given here.

For the compound `O=c1c2ccccc2[se]n1-c1ccccc1` [Ebselen], the toxicity result in data set [1] is recorded as “toxic in the μM (micromolar) range”. As to `CN(C)Cc1ccccc1[Se][Se]c1ccccc1CN(C)C` [2,2'diselenobis (N,N dimethylamino)methyl benzene], the toxicity entry in data set [1] was “toxic in the μM (micromolar) range”. For “μPx-8: heme-peptide with the cytochrome C peptide segment containing residue 14 to 21 (CAQCHTVE; cysteine pairing not given here; also: heme-peptide, heme attachment not placed; UniProt P00004 15-22, looked up, fragment)”, the “effect of H2O2 on peroxidase” value in data set [2] (absence of Asc) is listed as “inactivated”. In addition, the “ability to degrade H2O2 compared with μPx-11” value in data set [2] (presence of 1 mM Asc) is “more active than μPx-11”.
